# Source: patent US20250127761A1, “Telmisartan Nanosuspension for Therapy of Respiratory Infections and Methods of Making and Using Same” (Soligenix, Inc., priority 2022, published 2025)
# Columns and labels:
# ANG II type 1 receptor = experiment: Inhibition of ANG II-mediated intracellular calcium spike in lung smooth muscle cells; type: cell-based
# [1] = cynomolgus monkey, in vivo
structure (smiles),measurement,setting,value
"CCCc1nc2c(C)cc(-c3nc4ccccc4n3C)cc2n1Cc1ccc(-c2ccccc2C(=O)O)cc1 [FD-TEL, telmisartan]",ANG II-mediated transient [Ca2+]i spike,ANG II type 1 receptor,equally and entirely abrogated
same,creatine kinase,[1],significant increase
